The record followed here is publication PMC11062922 (Nature Chemical Biology, 2023).

In one experiment the test system is NQO2. Nature of the experiment: Kinobeads competition binding: NQO2. Also on record: species or system human. Particulars: target NQO2.
A further experiment concerns CDC42BPB. Nature of the experiment: Kinobeads competition binding: CDC42BPB. Further details: species or system human. The conditions noted are these: target CDC42BPB.
A further experiment addresses T1, FYN (Homo sapiens, UniProt P06241).
T1 construct: endogenous in cells
Nature of the experiment: Kinobeads competition binding: FYN.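 Further: share of total target engagement due to this protein at one drug concentration.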 Particulars: target FYN. The source says: Supplement 41589_2023_1459_MOESM4_ESM.xlsx, sheet "CATDS matrix" | column: FYN

Another experiment concerns the target T2, LATS1 (Homo sapiens, UniProt O95835).
T2 construct: endogenous in cells
T2 sequence (O95835 1-1130): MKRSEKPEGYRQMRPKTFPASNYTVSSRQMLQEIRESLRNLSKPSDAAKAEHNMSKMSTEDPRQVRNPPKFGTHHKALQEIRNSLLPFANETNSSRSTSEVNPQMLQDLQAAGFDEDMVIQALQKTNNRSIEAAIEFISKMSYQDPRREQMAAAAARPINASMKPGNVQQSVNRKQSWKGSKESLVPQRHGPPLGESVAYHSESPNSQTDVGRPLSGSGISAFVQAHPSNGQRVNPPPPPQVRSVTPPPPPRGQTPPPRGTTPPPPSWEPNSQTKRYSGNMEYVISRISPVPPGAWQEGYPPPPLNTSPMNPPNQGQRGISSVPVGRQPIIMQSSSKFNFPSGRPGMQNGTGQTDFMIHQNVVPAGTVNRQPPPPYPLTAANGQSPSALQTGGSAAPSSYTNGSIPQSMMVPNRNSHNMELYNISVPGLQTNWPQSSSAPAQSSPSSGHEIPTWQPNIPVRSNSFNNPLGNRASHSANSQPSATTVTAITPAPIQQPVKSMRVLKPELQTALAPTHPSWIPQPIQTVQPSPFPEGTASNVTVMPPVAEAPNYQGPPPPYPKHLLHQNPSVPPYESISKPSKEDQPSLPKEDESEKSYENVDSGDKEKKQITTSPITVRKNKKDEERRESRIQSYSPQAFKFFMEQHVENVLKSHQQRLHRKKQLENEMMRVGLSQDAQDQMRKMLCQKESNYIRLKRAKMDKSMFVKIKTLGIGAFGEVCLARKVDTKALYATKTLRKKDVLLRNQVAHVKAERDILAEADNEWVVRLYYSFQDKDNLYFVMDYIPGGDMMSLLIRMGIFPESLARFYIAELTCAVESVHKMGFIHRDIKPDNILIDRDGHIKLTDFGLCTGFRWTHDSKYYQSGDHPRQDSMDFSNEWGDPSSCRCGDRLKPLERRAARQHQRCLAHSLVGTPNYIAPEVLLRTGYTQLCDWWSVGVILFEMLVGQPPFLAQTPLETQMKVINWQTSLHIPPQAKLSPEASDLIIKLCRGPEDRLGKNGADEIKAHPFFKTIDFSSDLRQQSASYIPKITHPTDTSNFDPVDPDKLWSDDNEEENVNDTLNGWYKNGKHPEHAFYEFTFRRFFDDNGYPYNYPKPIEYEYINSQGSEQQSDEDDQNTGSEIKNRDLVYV
Nature of the experiment: Kinobeads competition binding: LATS1. Particulars: target LATS1. The source says:
Supplement 41589_2023_1459_MOESM4_ESM.xlsx, sheet "CATDS matrix" | column: LATS1

The target in a further experiment is T3, FES (Homo sapiens, UniProt P07332).
T3 construct: endogenous in cells
Nature of the experiment: Kinobeads competition binding: FES.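 Further: selectivity score: engagement of this protein divided by summed engagement of all targets.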 The conditions noted are these: target FES. An excerpt: Supplement 41589_2023_1459_MOESM4_ESM.xlsx, sheet "CATDS matrix" | column: FES

The test system of another experiment is MAP2K1. Nature of the experiment: Kinobeads competition binding: MAP2K1. The conditions noted are these: target MAP2K1. Further details: species or system human.
The next experiment deals with GALK1. Nature of the experiment: Kinobeads competition binding: GALK1. Also on record: species or system human. The conditions noted are these: target GALK1.
A further experiment deals with T4, CSK (Homo sapiens, UniProt P41240).
T4 construct: endogenous in cells
T4 sequence (P41240 whole entry): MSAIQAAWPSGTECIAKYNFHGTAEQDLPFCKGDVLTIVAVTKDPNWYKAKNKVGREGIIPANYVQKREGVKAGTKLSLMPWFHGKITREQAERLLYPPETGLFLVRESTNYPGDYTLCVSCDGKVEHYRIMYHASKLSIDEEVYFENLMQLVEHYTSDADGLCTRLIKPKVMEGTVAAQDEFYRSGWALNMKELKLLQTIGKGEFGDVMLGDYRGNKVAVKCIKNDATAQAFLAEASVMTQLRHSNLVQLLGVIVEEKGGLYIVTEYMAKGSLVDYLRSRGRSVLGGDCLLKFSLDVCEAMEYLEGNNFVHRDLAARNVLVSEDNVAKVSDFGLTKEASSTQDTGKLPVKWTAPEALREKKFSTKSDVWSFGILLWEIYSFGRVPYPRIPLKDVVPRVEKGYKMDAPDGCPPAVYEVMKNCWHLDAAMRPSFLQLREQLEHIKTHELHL
Nature of the experiment: Kinobeads competition binding: CSK. Particulars: target CSK.

The target in the next experiment is T5, DYRK1A (Homo sapiens, UniProt Q13627).
T5 construct: endogenous in cells
Nature of the experiment: Kinobeads competition binding: DYRK1A. Particulars: target DYRK1A.

The next experiment has as its target T6, CDK6 (Homo sapiens, UniProt Q00534).
T6 construct: endogenous in cells
Nature of the experiment: Kinobeads competition binding: CDK6. Particulars: target CDK6.

The next experiment concerns the target T7, CIT (Homo sapiens, UniProt O14578).
T7 construct: endogenous in cells
Nature of the experiment: Kinobeads competition binding: CIT. The conditions noted are these: target CIT. An excerpt: Supplement 41589_2023_1459_MOESM4_ESM.xlsx, sheet "CATDS matrix" | column: CIT

The test system of a further experiment is ADK. Nature of the experiment: Kinobeads competition binding: ADK.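 Further: selectivity score: engagement of this protein divided by summed engagement of all targets.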 Further details: species or system human. Particulars: target ADK.
The target in the next experiment is T8, EPHA7 (Homo sapiens, UniProt Q15375).
T8 construct: endogenous in cells
T8 sequence (Q15375 28-998): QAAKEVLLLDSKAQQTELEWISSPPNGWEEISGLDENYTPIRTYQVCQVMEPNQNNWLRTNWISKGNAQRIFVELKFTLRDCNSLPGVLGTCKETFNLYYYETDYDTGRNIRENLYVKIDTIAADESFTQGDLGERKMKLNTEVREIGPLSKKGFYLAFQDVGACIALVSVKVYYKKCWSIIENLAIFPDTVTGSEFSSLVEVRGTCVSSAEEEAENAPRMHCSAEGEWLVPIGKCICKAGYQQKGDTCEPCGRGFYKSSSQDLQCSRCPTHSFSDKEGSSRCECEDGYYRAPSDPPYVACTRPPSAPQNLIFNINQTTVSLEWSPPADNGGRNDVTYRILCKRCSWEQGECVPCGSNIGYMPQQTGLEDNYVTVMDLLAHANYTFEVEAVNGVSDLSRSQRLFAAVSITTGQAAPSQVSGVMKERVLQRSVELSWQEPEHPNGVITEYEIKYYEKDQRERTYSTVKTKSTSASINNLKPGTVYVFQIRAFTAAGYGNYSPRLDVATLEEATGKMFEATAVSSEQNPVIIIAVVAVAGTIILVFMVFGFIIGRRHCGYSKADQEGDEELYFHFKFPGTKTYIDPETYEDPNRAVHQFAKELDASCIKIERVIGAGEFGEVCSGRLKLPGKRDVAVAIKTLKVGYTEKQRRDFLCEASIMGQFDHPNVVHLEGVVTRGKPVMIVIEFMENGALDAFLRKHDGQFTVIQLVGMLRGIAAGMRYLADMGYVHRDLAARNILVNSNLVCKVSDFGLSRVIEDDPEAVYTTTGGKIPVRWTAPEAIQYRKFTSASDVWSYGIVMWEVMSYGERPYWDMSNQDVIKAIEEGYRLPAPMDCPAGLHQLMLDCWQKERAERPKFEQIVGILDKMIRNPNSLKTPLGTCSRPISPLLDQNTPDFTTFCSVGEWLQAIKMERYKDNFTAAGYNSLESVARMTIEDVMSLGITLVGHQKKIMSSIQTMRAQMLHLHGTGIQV
Nature of the experiment: Kinobeads competition binding: EPHA7. The conditions noted are these: target EPHA7. The source says: Supplement 41589_2023_1459_MOESM4_ESM.xlsx, sheet "CATDS matrix" | column: EPHA7

The next experiment concerns ADRBK1. Nature of the experiment: Kinobeads competition binding: ADRBK1. Also on record: species or system human. The conditions noted are these: target ADRBK1.
The test system of the next experiment is CDC42BPA. Nature of the experiment: Kinobeads competition binding: CDC42BPA.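 Further: selectivity score: engagement of this protein divided by summed engagement of all targets.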 Also on record: species or system human. The conditions noted are these: target CDC42BPA.
A further experiment deals with MAP2K4. Nature of the experiment: Kinobeads competition binding: MAP2K4. Also on record: species or system human. The conditions noted are these: target MAP2K4.
For another experiment, the target named is T9, CDC7 (Homo sapiens, UniProt O00311).
T9 construct: endogenous in cells
Nature of the experiment: Kinobeads competition binding: CDC7. The conditions noted are these: target CDC7.

For the next experiment, the system named is PKM. Nature of the experiment: Kinobeads competition binding: PKM. Also on record: species or system human. Particulars: target PKM.
The next experiment addresses T10, CAMK2G (Homo sapiens, UniProt Q13555).
T10 construct: endogenous in cells
Nature of the experiment: Kinobeads competition binding: CAMK2G. The conditions noted are these: target CAMK2G.

T10 sequence (Q13555 whole entry): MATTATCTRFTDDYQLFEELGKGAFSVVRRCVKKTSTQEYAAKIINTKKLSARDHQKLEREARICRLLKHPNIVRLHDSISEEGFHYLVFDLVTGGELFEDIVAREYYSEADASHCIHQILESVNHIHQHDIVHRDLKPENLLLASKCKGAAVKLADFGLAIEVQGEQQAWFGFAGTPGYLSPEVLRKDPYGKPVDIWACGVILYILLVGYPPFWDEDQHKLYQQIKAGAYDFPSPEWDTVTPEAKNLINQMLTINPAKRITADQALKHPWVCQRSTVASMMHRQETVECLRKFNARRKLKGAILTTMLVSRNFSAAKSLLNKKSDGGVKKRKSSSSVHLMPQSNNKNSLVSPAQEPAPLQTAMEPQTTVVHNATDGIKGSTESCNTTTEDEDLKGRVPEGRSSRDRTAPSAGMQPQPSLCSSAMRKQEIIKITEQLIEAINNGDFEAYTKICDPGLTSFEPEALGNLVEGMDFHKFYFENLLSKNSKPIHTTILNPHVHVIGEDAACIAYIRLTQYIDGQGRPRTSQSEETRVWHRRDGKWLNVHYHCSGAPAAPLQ
T7 sequence (O14578 whole entry): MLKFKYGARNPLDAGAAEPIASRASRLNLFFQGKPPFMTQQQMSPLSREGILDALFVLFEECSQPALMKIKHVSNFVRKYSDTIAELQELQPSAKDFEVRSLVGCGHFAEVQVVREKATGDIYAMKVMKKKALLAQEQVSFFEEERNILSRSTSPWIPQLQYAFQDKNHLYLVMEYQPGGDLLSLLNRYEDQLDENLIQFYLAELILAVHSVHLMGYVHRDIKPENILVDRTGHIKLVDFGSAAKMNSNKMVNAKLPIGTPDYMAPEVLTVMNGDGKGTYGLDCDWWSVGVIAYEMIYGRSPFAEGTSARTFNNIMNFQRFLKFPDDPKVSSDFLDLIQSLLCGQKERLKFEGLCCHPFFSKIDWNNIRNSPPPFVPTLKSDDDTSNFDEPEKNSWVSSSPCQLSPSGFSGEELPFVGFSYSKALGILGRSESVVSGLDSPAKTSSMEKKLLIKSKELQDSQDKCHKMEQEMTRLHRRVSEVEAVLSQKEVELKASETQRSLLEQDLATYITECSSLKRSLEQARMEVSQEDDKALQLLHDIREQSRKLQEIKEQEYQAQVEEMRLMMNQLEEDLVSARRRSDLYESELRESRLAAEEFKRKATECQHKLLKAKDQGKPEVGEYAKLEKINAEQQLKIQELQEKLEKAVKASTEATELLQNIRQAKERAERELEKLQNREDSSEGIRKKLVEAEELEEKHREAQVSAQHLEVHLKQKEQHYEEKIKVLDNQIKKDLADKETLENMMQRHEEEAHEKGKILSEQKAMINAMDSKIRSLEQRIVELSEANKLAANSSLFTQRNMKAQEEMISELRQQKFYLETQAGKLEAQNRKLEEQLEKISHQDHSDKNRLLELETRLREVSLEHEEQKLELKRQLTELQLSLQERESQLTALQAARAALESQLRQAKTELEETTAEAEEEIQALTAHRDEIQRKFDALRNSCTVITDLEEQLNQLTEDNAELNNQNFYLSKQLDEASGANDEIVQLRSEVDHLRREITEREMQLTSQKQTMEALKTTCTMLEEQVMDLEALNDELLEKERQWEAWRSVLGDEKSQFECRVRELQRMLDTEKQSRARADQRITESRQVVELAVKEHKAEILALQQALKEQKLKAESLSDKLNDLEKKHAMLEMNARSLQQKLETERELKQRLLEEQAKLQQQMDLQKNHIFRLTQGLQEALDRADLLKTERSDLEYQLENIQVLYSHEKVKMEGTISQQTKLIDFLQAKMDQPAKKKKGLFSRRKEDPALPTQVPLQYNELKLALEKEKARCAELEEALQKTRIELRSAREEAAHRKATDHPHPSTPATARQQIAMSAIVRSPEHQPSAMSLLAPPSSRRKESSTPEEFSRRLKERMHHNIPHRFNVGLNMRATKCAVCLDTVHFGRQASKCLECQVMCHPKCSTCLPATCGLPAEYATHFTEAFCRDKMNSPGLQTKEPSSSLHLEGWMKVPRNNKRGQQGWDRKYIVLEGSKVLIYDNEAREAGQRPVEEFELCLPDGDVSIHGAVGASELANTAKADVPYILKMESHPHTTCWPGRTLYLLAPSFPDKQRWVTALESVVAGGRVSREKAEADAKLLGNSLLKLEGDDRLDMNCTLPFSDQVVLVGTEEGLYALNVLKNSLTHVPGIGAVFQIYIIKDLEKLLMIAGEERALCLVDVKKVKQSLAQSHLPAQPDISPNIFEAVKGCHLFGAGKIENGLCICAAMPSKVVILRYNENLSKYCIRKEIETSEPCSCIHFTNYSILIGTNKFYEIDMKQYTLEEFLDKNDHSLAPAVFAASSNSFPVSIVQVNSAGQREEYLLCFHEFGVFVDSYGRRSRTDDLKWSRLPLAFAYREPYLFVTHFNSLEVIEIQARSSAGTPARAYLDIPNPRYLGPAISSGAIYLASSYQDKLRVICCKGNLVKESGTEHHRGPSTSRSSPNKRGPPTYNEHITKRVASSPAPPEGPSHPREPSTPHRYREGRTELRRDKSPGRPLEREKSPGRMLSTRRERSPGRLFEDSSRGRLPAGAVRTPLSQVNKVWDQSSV
T6 sequence (Q00534 whole entry): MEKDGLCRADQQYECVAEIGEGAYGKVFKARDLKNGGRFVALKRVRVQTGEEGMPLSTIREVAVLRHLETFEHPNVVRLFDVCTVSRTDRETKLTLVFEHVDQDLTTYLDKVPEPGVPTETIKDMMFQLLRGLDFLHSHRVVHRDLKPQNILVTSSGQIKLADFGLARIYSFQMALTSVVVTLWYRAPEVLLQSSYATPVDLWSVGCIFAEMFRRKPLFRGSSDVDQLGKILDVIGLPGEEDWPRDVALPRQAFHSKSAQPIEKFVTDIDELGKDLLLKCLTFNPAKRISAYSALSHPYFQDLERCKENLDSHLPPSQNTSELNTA
T1 sequence (P06241 whole entry): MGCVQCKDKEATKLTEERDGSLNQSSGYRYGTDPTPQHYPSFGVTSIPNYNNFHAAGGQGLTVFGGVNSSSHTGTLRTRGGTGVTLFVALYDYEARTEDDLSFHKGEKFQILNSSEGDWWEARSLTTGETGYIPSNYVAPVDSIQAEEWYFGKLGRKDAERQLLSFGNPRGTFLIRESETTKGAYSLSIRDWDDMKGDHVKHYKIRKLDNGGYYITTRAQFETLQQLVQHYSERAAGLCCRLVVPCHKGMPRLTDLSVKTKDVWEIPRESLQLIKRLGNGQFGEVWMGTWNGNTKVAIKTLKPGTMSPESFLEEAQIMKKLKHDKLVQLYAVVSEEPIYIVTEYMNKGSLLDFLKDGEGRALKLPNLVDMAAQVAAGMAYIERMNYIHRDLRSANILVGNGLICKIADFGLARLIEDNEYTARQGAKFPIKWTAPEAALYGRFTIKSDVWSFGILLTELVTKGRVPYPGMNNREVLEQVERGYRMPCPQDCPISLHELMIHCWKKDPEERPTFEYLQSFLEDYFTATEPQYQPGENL

As for `Nc1ncnc2[nH]c(-c3ccccc3)nc12` [AH5015_KCGS], the CATDS with NQO2, in the experiment on CDC42BPB, at FYN, at LATS1, on FES and with MAP2K1 was 0 throughout. Besides, the CATDS in the experiment with GALK1, on CSK, at DYRK1A, on CDK6, on CIT and with ADK was 0 in each case. The CATDS at EPHA7, in the experiment on ADRBK1, in the experiment on CDC42BPA, with MAP2K4, on CDC7 and in the experiment on PKM was 0 in each case. On CAMK2G, this compound came in with a CATDS of 0.

Turning to `CCc1cc2c(cc1N1CCC(N3CCOCC3)CC1)C(C)(C)c1[nH]c3cc(C#N)ccc3c1C2=O` [Alectinib], the CATDS in the experiment on NQO2, in the experiment with CDC42BPB, at FYN, at LATS1, on FES and with MAP2K1 was 0 each time. The CATDS with GALK1, on CSK, at DYRK1A, on CDK6, at CIT and in the experiment on ADK was 0 in each case. The CATDS at EPHA7, in the experiment on ADRBK1, with CDC42BPA, in the experiment on MAP2K4, at CDC7 and in the experiment with PKM was 0 in each case. The compound further yielded a CATDS at CAMK2G of 0.

`N#CC1(c2ccc(NC(=O)c3cccnc3NCc3ccncc3)cc2)CCCC1` [Apatinib]: the CATDS in the experiment with NQO2, in the experiment on CDC42BPB, on FYN, on LATS1, at FES and with MAP2K1 was 0 in each case. The CATDS with GALK1, on CSK, at DYRK1A, at CDK6, on CIT and in the experiment with ADK was 0 throughout. Besides, the CATDS on EPHA7, in the experiment with ADRBK1, with CDC42BPA, in the experiment with MAP2K4, at CDC7 and with PKM was 0 in each case. For the same compound, the CATDS on CAMK2G was determined as 0.

For the compound `CCN1CCN(Cc2ccc(Nc3ncc(F)c(-c4cc(F)c5nc(C)n(C(C)C)c5c4)n3)nc2)CC1` [Abemaciclib], the CATDS in the experiment with NQO2, with CDC42BPB, on FYN, on LATS1, at FES and in the experiment on MAP2K1 was 0 throughout. In addition, the CATDS in the experiment on GALK1 worked out at 0; at CSK it was 0; on CIT, 0.02291; in the experiment with ADK, 0; at EPHA7 it was 0; in the experiment on ADRBK1 it was 0. The CATDS came out at 0 in the experiment on CDC42BPA; 0 in the experiment on MAP2K4; 0 on CDC7; 0 with PKM; 0.09397 on CAMK2G.

As for `CN(C)C/C=C/C(=O)Nc1cc2c(Nc3ccc(F)c(Cl)c3)ncnc2cc1O[C@H]1CCOC1` [Afatinib], the CATDS with NQO2, on FYN, on LATS1, at FES, in the experiment on GALK1 and on CIT was 0 in each case. Besides, the CATDS in the experiment with ADK and at EPHA7 was 0 in each case.
